Results reported in paper PMC9848300, “Discovery of novel enasidenib analogues targeting inhibition of mutant isocitrate dehydrogenase 2 as antileukaemic agents” (Journal of Enzyme Inhibition and Medicinal Chemistry, 2023).

Tests used:
K-562 = assay: NCI 60 antitumor screening (single dose / five doses); type: cell-based; details: Homo sapiens, K562; K-562 (leukaemia), single dose 10 μM; read-out: Growth inhibition percentage (GI %)
SK-MEL-28 = assay: as above; type: cell-based; details: Homo sapiens; SK-MEL-28 (melanoma), single dose 10 μM; read-out: Growth inhibition percentage (GI %)
SW-620 = assay: as above; type: cell-based, human; details: Homo sapiens; SW-620 (colon cancer), single dose 10 μM; read-out: Growth inhibition percentage (GI %)
COLO 205 = assay: as above; type: cell-based; details: Homo sapiens; COLO 205 (colon cancer), single dose 10 μM; read-out: Growth inhibition percentage (GI %)
MDA-MB-435 = assay: as above; type: cell-based; details: Homo sapiens; MDA-MB-435 (melanoma), single dose 10 μM; read-out: Growth inhibition percentage (GI %)
MOLT-4 = assay: as above; type: cell-based; details: Homo sapiens; MOLT-4 (leukaemia), single dose 10 μM; read-out: Growth inhibition percentage (GI %)
ACHN = assay: as above; type: cell-based; details: Homo sapiens; ACHN (renal cancer), single dose 10 μM; read-out: Growth inhibition percentage (GI %)
MALME-3M = assay: as above; type: cell-based; details: Homo sapiens; MALME-3M (melanoma), single dose 10 μM; read-out: Growth inhibition percentage (GI %)
MDA-MB-468 = assay: as above; type: cell-based; details: Homo sapiens; MDA-MB-468 (breast cancer), single dose 10 μM; read-out: Growth inhibition percentage (GI %)
NCI-H460 = assay: NCI 60 antitumor screening (single dose); type: cell-based; details: Homo sapiens; NCI-H460 (non-small cell lung cancer), single dose 10 μM; read-out: Growth inhibition percentage (GI %)
In short: (§1)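 NCI-60 protocol: single 10 μM dose against each cell line, run in triplicate. Percent growth (G%) of treated cells measured and growth inhibition reported as GI% = 100 − G%; panel mean also given.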

SF-268 = assay: NCI 60 antitumor screening (single dose); type: cell-based; details: Homo sapiens; SF-268 (CNS cancer), single dose 10 μM; read-out: Growth inhibition percentage (GI %)
In short: as §1

OVCAR-3 = assay: NCI 60 antitumor screening (single dose); type: cell-based; details: Homo sapiens; OVCAR-3 (ovarian cancer), single dose 10 μM; read-out: Growth inhibition percentage (GI %)
In short: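 Single-dose NCI protocol, 10 μM, triplicate. Readout G%; GI% = 100 − G%.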

SN 12C = assay: NCI 60 antitumor screening (single dose / five doses); type: cell-based; details: Homo sapiens, SN12C; SN 12C (renal cancer), single dose 10 μM; read-out: Growth inhibition percentage (GI %)
SF-539 = assay: as above; type: cell-based; details: Homo sapiens; SF-539 (CNS cancer), single dose 10 μM; read-out: Growth inhibition percentage (GI %)
UACC-62 = assay: as above; type: cell-based; details: Homo sapiens; UACC-62 (melanoma), single dose 10 μM; read-out: Growth inhibition percentage (GI %)
EKVX = assay: as above; type: cell-based; details: Homo sapiens; EKVX (non-small cell lung cancer), single dose 10 μM; read-out: Growth inhibition percentage (GI %)
SK-MEL-2 = assay: as above; type: cell-based; details: Homo sapiens; SK-MEL-2 (melanoma), single dose 10 μM; read-out: Growth inhibition percentage (GI %)
CCRF-CEM = assay: as above; type: cell-based; details: Homo sapiens; CCRF-CEM (leukaemia), single dose 10 μM; read-out: Growth inhibition percentage (GI %)
UACC-257 = assay: as above; type: cell-based; details: Homo sapiens; UACC-257 (melanoma), single dose 10 μM; read-out: Growth inhibition percentage (GI %)
SK-MEL-5 = assay: as above; type: cell-based; details: Homo sapiens; SK-MEL-5 (melanoma), single dose 10 μM; read-out: Growth inhibition percentage (GI %)
HOP-92 = assay: as above; type: cell-based; details: Homo sapiens; HOP-92 (non-small cell lung cancer), single dose 10 μM; read-out: Growth inhibition percentage (GI %)
786-0 = assay: as above; type: cell-based; details: Homo sapiens, 786-0, 786-0 (renal cancer), single dose 10 μM; read-out: Growth inhibition percentage (GI %)
SR = assay: as above; type: cell-based; details: Homo sapiens; SR (leukaemia), single dose 10 μM; read-out: Growth inhibition percentage (GI %)
UO-31 = assay: as above; type: cell-based; details: Homo sapiens; UO-31 (renal cancer), single dose 10 μM; read-out: Growth inhibition percentage (GI %)
MDA-MB-231/ATCC = assay: as above; type: cell-based; details: Homo sapiens; MDA-MB-231/ATCC (breast cancer), single dose 10 μM; read-out: Growth inhibition percentage (GI %)
IGROV1 = assay: as above; type: cell-based; details: Homo sapiens, IGROV-1; IGROV1 (ovarian cancer), single dose 10 μM; read-out: Growth inhibition percentage (GI %)
HT29 = assay: as above; type: cell-based, human; details: Homo sapiens, HT-29; HT29 (colon cancer), single dose 10 μM; read-out: Growth inhibition percentage (GI %)

| Structure (SMILES) | inhibition at 10 µM (K-562) [%] | inhibition at 10 µM (SK-MEL-28) [%] | inhibition at 10 µM (SW-620) [%] | inhibition at 10 µM (COLO 205) [%] | inhibition at 10 µM (MDA-MB-435) [%] | inhibition at 10 µM (MOLT-4) [%] | inhibition at 10 µM (ACHN) [%] | inhibition at 10 µM (MALME-3M) [%] | inhibition at 10 µM (MDA-MB-468) [%] | inhibition at 10 µM (NCI-H460) [%] | inhibition at 10 µM (SF-268) [%] | inhibition at 10 µM (OVCAR-3) [%] | inhibition at 10 µM (SN 12C) [%] | inhibition at 10 µM (SF-539) [%] | inhibition at 10 µM (UACC-62) [%] | inhibition at 10 µM (EKVX) [%] | inhibition at 10 µM (SK-MEL-2) [%] | inhibition at 10 µM (CCRF-CEM) [%] | inhibition at 10 µM (UACC-257) [%] | inhibition at 10 µM (SK-MEL-5) [%] | further results |
| --- | --- | --- | --- | --- | --- | --- | --- | --- | --- | --- | --- | --- | --- | --- | --- | --- | --- | --- | --- | --- | --- |
| CN(C)c1ccc(/C=N/Nc2nc(N/N=C/c3ccc(N(C)C)cc3)nc(N3CCOCC3)n2)cc1 [compound 6g, 4-[(1e)-(2-{4-[(E)-2-{[4-(dimethylamino)phenyl]methylidene}hydrazin-1-yl]-6-(morpholin-4-yl)-1,3,5-triazin-2-yl}hydrazin-1-ylidene)methyl]-N,N-dimethylaniline] | 93.7 | -5.75 | 16.2 | -8.37 | -4.43 | 3.27 | -4.23 | -14.2 | 2.17 | 83.3 | 2.19 | -9.22 | 10.8 | 3.33 | 2.25 | 4.62 | 1.45 | 86.7 | -2.69 | -0.23 | inhibition at 10 µM (HOP-92): -8.78%; inhibition at 10 µM (786-0): 15.4%; inhibition at 10 µM (SR): 113%; inhibition at 10 µM (UO-31): 9.35%; inhibition at 10 µM (MDA-MB-231/ATCC): 0.47%; inhibition at 10 µM (IGROV1): 5.41%; inhibition at 10 µM (HT29): -1.91% |
| C(=N\Nc1nc(N/N=C/c2ccc3c(c2)OCO3)nc(N2CCOCC2)n1)/c1ccc2c(c1)OCO2 [compound 6k, 2,4-Bis[(E)-2-(2H-1,3-Benzodioxol-5-ylmethylidene)hydrazin-1-yl]-6-(morpholin-4-yl)-1,3,5-triazine] | 45.6 | 12.8 | 29 | 40.7 | 4.07 | 47.3 | 24.7 | -3.77 | 32.1 | 12.2 | 8.94 | 6.73 | 24.1 | 18.2 | -4.28 | 4.47 | 1.68 | 41 | -2.23 | 14 | inhibition at 10 µM (HOP-92): 8.47%; inhibition at 10 µM (786-0): 36.6%; inhibition at 10 µM (SR): 85%; inhibition at 10 µM (UO-31): 46.4%; inhibition at 10 µM (MDA-MB-231/ATCC): 0.11%; inhibition at 10 µM (IGROV1): 24.3%; inhibition at 10 µM (HT29): 51.7% |
| Brc1ccccc1/C=N/Nc1nc(N/N=C/c2ccccc2Br)nc(N2CCCCC2)n1 [compound 7b, 2,4-Bis[(E)-2-[(2-Bromophenyl)methylidene]hydrazin-1-yl]-6-(piperidin-1-yl)-1,3,5-triazine] | 4.67 | -0.81 | -0.46 | -5.18 | -1.23 | -12.3 | 4.56 | -6.25 | 12.4 | 0.96 | -1.64 | -6.1 | 5.69 | 2.62 | 12.2 | 4.52 | -1.28 | 0.06 | -8.22 | 5.12 | inhibition at 10 µM (HOP-92): -33%; inhibition at 10 µM (786-0): 1.09%; inhibition at 10 µM (SR): -1.34%; inhibition at 10 µM (UO-31): 7.3%; inhibition at 10 µM (MDA-MB-231/ATCC): 2.05%; inhibition at 10 µM (IGROV1): 2.38%; inhibition at 10 µM (HT29): -1.89% |
